Reference: US20030138429A1, “Compositions and methods for inhibiting metastasis” (priority 2001, published 2003)
Entries after “also recorded” stand apart in the source; their conditions may differ.

Each compound was assayed on 1-LN cells (assay: MMP-9 activity in serum-free culture medium of 1-LN cells (quantitative gelatin zymography)). Conditions: SFM + 6-AHA (100 nM) + glycoform 0.1 μM, 24 h.
Format: cell-based, human
Description: Gelatin Zymography—Protein samples were electrophoresed on gelatin-containing 0.75 mm thick 10% polyacrylamide gels in the presence of SDS under nonreducing conditions. After completion of the electrophoretic run, the gels were incubated with two changes of 2.5% Triton X-100 for 1 h, followed by incubation for 18 h at 37° C. in 0.1 M glycine-NaOH, pH 8.3, containing 1 mM CaCl2, and […], before staining with Coomassie Brilliant Blue R-250 to visualize the lysis bands.
MMP-9 Activity in Solution—MMP-9 activity was measured in tissue culture supernatants by quantitative zymography using as a standard MMP-9 purified by affinity chromatography on gelatin-Sepharose from 1-LN cell conditioned medium (10 liters). Conditioned medium (50 μl), from 1-LN cell monolayers in 48 well culture plates (1.7×10^6 cells/well) incubated with Pg 2 glycoforms and/or inhibitors of Pg binding or activation, were electrophoresed on gelatin-containing gels and the degree of lysis was quantified using a Gelman ACD-15 Automatic Computing Densitometer (Gelman Instrument Company, Ann Arbor, Mich.). Values were determined by integrating the density of the selected bands and expressed in units×mm^2. Each gel was scanned three times and the average value of the integrated density of the bands was used to determine levels of MMP-9 from calibration curves constructed with purified active MMP-9 electrophoresed under the same conditions. The statistical analysis of the data was performed on an IBM 433 DX/S computer using the program SYSTAT® for Windows 95. The statistical significance of differences between means was evaluated by Student's t-test. MMP-9 was positively identified in conditioned medium by electrophoretic separation in 10% SDS-polyacrylamide gels (SDS-PAGE), electroblot of the electrophoresed proteins to nitrocellulose membranes and reaction with an anti-MMP-9 mAb (1 μg/ml) followed by reaction with a secondary alkaline phosphatase conjugated anti-mouse IgG. Detection was performed by reaction with the alkaline phosphatase substrate 5-bromo-4-chloro-3-indolyl phosphate in the presence of nitroblue tetrazolium (1 mM each) in 10 mM Tris-HCl, pH 8.5.
Effect of Pg on the Expression of MMP-9 by 1-LN Cells—Cells were seeded into 48-well culture plates and grown in RPMI 1640 containing 10% fetal bovine serum. Confluent monolayers were then incubated for 24 h with quiescent culture medium containing RPMI 1640 and 0.5% fetal bovine serum. Each individual Pg 2 glycoform (0.1 μM) was added in triplicate to cell monolayers in 300 μl of serum-free RPMI 1640 and incubated for 24 h at 37° C. Culture medium was collected to measure secretion of MMP-9 as described under Experimental Procedures. Prior to analyses of the MMP-9 secreted into the medium by 1-LN cells in the presence of individual Pg 2 glycoforms, we purified MMP-9 from conditioned medium (5 liters) by the technique of Masure et al.. […] A similar analysis of the Mr˜95,000 protein yielded the sequence APRQRQ, corresponding to the amino-terminal sequence of proMMP-9. […] We then proceeded to analyze the MMP-9 secreted into the medium by 1-LN cells incubated with each individual Pg 2 glycoform in serum-free culture medium, using the purified MMP-9 as a standard for quantification by gelatin zymography. These analyses (FIG. 7A) show a major band of active protein with a Mr˜85,000. […] Samples of these conditioned media were also subjected to SDS-PAGE under reducing conditions, electroblotted to nitrocellulose membranes and then reacted with an anti-MMP-9 mAb (FIG. 7B). […] A 4-fold decrease in the production of MMP-9 by cells co-incubated with anti-DPP IV mAb 236.3 and Pg 2ε (p<0.001) (Table II) is clearly observed in the conditioned medium (Lane 6 on FIGS. 8A and 8B, respectively).

Compound	Active MMP-9 [ng/mL]
Pg 2α: glycoform of human plasminogen type 2 purified from plasma; 1.3 mol sialic acid/mol Pg	0.59 ± 0.17
Pg 2β: glycoform of human plasminogen type 2 purified from plasma; 2.2 mol sialic acid/mol Pg	0.5 ± 0.13
Pg 2γ: glycoform of human plasminogen type 2 purified from plasma; 2.95 mol sialic acid/mol Pg	0.63 ± 0.21
Pg 2δ: glycoform of human plasminogen type 2 purified from plasma; 5.77 mol sialic acid/mol Pg	0.57 ± 0.14
Pg 2ε: glycoform of human plasminogen type 2 purified from plasma; 5.34 mol sialic acid/mol Pg	1.82 ± 0.23
Pg 2φ: glycoform of human plasminogen type 2 purified from plasma; 13.65 mol sialic acid/mol Pg	0.57 ± 0.11

Same assay, conditions: SFM + DPP IV-Ab (50 μg/ml) + glycoform 0.1 μM, 24 h

Compound	Active MMP-9 [ng/mL]
Pg 2γ: glycoform of human plasminogen type 2 purified from plasma; 2.95 mol sialic acid/mol Pg	0.58 ± 0.12
Pg 2δ: glycoform of human plasminogen type 2 purified from plasma; 5.77 mol sialic acid/mol Pg	0.56 ± 0.11
Pg 2ε: glycoform of human plasminogen type 2 purified from plasma; 5.34 mol sialic acid/mol Pg	0.49 ± 0.14

Same assay, conditions: SFM + L-lac (100 mM) + glycoform 0.1 μM, 24 h

Compound	Active MMP-9 [ng/mL]
Pg 2α: glycoform of human plasminogen type 2 purified from plasma; 1.3 mol sialic acid/mol Pg	0.11 ± 0.02
Pg 2β: glycoform of human plasminogen type 2 purified from plasma; 2.2 mol sialic acid/mol Pg	0.17 ± 0.04
Pg 2γ: glycoform of human plasminogen type 2 purified from plasma; 2.95 mol sialic acid/mol Pg	0.15 ± 0.03
Pg 2δ: glycoform of human plasminogen type 2 purified from plasma; 5.77 mol sialic acid/mol Pg	0.18 ± 0.04
Pg 2ε: glycoform of human plasminogen type 2 purified from plasma; 5.34 mol sialic acid/mol Pg	0.14 ± 0.05
Pg 2φ: glycoform of human plasminogen type 2 purified from plasma; 13.65 mol sialic acid/mol Pg	0.11 ± 0.02

Same assay, conditions: SFM + additive alone, no Pg 2 glycoform, 24 h

Compound	Active MMP-9 [ng/mL]
OC[C@@H]1O[C@H](O[C@@H]2[C@@H](O)[C@H](O)C(O)O[C@H]2CO)[C@@H](O)[C@H](O)[C@@H]1O (stereo partly drawn) [L-lactose, reference compound]	0.15 ± 0.03

Same assay, conditions: SFM + glycoform 0.1 μM, no additive, 24 h, 37° C.

Compound	Active MMP-9 [ng/mL]
Pg 2α: glycoform of human plasminogen type 2 purified from plasma; 1.3 mol sialic acid/mol Pg	0.59 ± 0.16
Pg 2β: glycoform of human plasminogen type 2 purified from plasma; 2.2 mol sialic acid/mol Pg	0.59 ± 0.13
Pg 2γ: glycoform of human plasminogen type 2 purified from plasma; 2.95 mol sialic acid/mol Pg	0.60 ± 0.17
Pg 2δ: glycoform of human plasminogen type 2 purified from plasma; 5.77 mol sialic acid/mol Pg	0.62 ± 0.18
Pg 2ε: glycoform of human plasminogen type 2 purified from plasma; 5.34 mol sialic acid/mol Pg	1.80 ± 0.21
Pg 2φ: glycoform of human plasminogen type 2 purified from plasma; 13.65 mol sialic acid/mol Pg	0.63 ± 0.14

Same assay, conditions: Yes/No

Compound	MMP-9 EXPRESSION Secretion
Pg 2α: glycoform of human plasminogen type 2 purified from plasma; 1.3 mol sialic acid/mol Pg	No
Pg 2β: glycoform of human plasminogen type 2 purified from plasma; 2.2 mol sialic acid/mol Pg	No
Pg 2γ: glycoform of human plasminogen type 2 purified from plasma; 2.95 mol sialic acid/mol Pg	No
Pg 2δ: glycoform of human plasminogen type 2 purified from plasma; 5.77 mol sialic acid/mol Pg	No
Pg 2ε: glycoform of human plasminogen type 2 purified from plasma; 5.34 mol sialic acid/mol Pg	Yes

Same assay, conditions: cells co-incubated with Pg 2ε; L-lactose 100 mM; anti-DPP IV mAb

Compound	Decrease in the production of MMP-9 [fold]
OC[C@@H]1O[C@H](O[C@@H]2[C@@H](O)[C@H](O)C(O)O[C@H]2CO)[C@@H](O)[C@H](O)[C@@H]1O (stereo partly drawn) [L-lactose, reference compound]	12

Same assay, conditions: compared to cells with other Pg 2 glycoforms or culture medium, p<0.001

Compound	Stimulation of active MMP-9 secreted [fold]
Pg 2ε: glycoform of human plasminogen type 2 purified from plasma; 5.34 mol sialic acid/mol Pg	3

These compounds were tested on 1-LN human prostate tumor cells (assay: Binding of 125I-labeled Pg 2 glycoforms to 1-LN cells). Conditions: 125I-labeled glycoform 0.1 μM, increasing concentrations of inhibitor.
Description: Ligand Binding Analysis—Cells were grown in tissue culture plates until the monolayers were confluent. Prior to use in binding assays, the cells were washed in HBSS. All binding assays were performed at 4° C. in RPMI 1640 containing 2% bovine serum ablumin (BSA). Increasing concentrations of ^125I-labeled Pg 2 glycoforms were incubated with cells for 60 min in 48-well or 96-well culture plates, respectively. Free ligand was separated from bound by aspirating the incubation mixture by and washing the cell monolayers rapidly three times with RPMI 1640 containing 2% BSA. The cells were then lyzed with 0.1 M NaOH, and bound radioactivity was determined in a Pharmacia LKB Biotechnology 1272-gamma counter. Molecules of ligand bound were calculated after substraction of non-specific binding measured in the presence of nonlabeled 100 μM Pg 2. Estimates for dissociation constant (Kd) values and maximal binding of Pg 2 glycoforms (Bmax) were determined by fitting data directly to the Langmuir isotherm using the statistical program SYStat® for Windows.
Binding of Single Pg 2 Glycoforms to 1-LN Human Prostate Tumor Cells—Binding of ^125I-labeled single Pg 2 glycoforms to 1-LN cells was determined as described under Experimental Procedures. Native Pg 2 has six glycoforms which differ in their sialic acid content.
In order to assess the binding mechanism of the individual Pg 2 glycoforms to 1-LN cells, we studied their activation by cells incubated with each glycoform in the presence of 6-aminohexanoic acid (6-AHA) and L-lactose. The antifibrinolytic amino acid 6-AHA prevents interaction of Pg L-lysine binding sites with several cell membrane-associated components. L-lactose is a sugar which intereferes with binding of Neu 5-AC (α2-3) or (α2-6) residues to sialic acid binding proteins and inhibits binding of Native Pg 2 to DPP IV on the surface of rheumatoid synovial fibroblasts.

Compound	Inhibition of binding of single Pg 2 glycoforms to 1-LN cells
OC[C@@H]1O[C@H](O[C@@H]2[C@@H](O)[C@H](O)C(O)O[C@H]2CO)[C@@H](O)[C@H](O)[C@@H]1O (stereo partly drawn) [L-lactose, reference compound]	inhibited binding of Pgs 2γ, 2δ, and 2ε

Same assay, conditions: 125I-labeled glycoform, 1-LN cell monolayers, serum-free RPMI 1640, mean ± SD

Compound	Kd [nM]	Kd (nM)
Pg 2α: glycoform of human plasminogen type 2 purified from plasma; 1.3 mol sialic acid/mol Pg	24.3 ± 1.33	–
Pg 2β: glycoform of human plasminogen type 2 purified from plasma; 2.2 mol sialic acid/mol Pg	7.4 ± 1.86	–
Pg 2γ: glycoform of human plasminogen type 2 purified from plasma; 2.95 mol sialic acid/mol Pg	10.6 ± 1.43	–
Pg 2δ: glycoform of human plasminogen type 2 purified from plasma; 5.77 mol sialic acid/mol Pg	13.6 ± 1.04	–
Pg 2ε: glycoform of human plasminogen type 2 purified from plasma; 5.34 mol sialic acid/mol Pg	3.8 ± 0.83	–
Pg 2φ: glycoform of human plasminogen type 2 purified from plasma; 13.65 mol sialic acid/mol Pg	–	No Binding

Same assay, conditions: binding to surface of 1-LN cells in presence of 6-AHA, Yes/No

Compound	BINDING +6-AHA
Pg 2α: glycoform of human plasminogen type 2 purified from plasma; 1.3 mol sialic acid/mol Pg	No
Pg 2β: glycoform of human plasminogen type 2 purified from plasma; 2.2 mol sialic acid/mol Pg	No
Pg 2γ: glycoform of human plasminogen type 2 purified from plasma; 2.95 mol sialic acid/mol Pg	Yes
Pg 2δ: glycoform of human plasminogen type 2 purified from plasma; 5.77 mol sialic acid/mol Pg	Yes
Pg 2ε: glycoform of human plasminogen type 2 purified from plasma; 5.34 mol sialic acid/mol Pg	Yes

Same assay, conditions: binding to surface of 1-LN cells in presence of L-lactose, Yes/No

Compound	BINDING +L-lactose
Pg 2α: glycoform of human plasminogen type 2 purified from plasma; 1.3 mol sialic acid/mol Pg	Yes
Pg 2β: glycoform of human plasminogen type 2 purified from plasma; 2.2 mol sialic acid/mol Pg	Yes
Pg 2γ: glycoform of human plasminogen type 2 purified from plasma; 2.95 mol sialic acid/mol Pg	No
Pg 2δ: glycoform of human plasminogen type 2 purified from plasma; 5.77 mol sialic acid/mol Pg	No
Pg 2ε: glycoform of human plasminogen type 2 purified from plasma; 5.34 mol sialic acid/mol Pg	No

Same assay, conditions: in words

Compound	Binding to 1-LN cells
Pg 2α: glycoform of human plasminogen type 2 purified from plasma; 1.3 mol sialic acid/mol Pg	bind to 1-LN cells in a dose-dependent manner with high affinity
Pg 2β: glycoform of human plasminogen type 2 purified from plasma; 2.2 mol sialic acid/mol Pg	bind to 1-LN cells in a dose-dependent manner with high affinity
Pg 2γ: glycoform of human plasminogen type 2 purified from plasma; 2.95 mol sialic acid/mol Pg	bind to 1-LN cells in a dose-dependent manner with high affinity
Pg 2δ: glycoform of human plasminogen type 2 purified from plasma; 5.77 mol sialic acid/mol Pg	bind to 1-LN cells in a dose-dependent manner with high affinity
Pg 2ε: glycoform of human plasminogen type 2 purified from plasma; 5.34 mol sialic acid/mol Pg	bind to 1-LN cells in a dose-dependent manner with high affinity
Pg 2φ: glycoform of human plasminogen type 2 purified from plasma; 13.65 mol sialic acid/mol Pg	does not bind; also recorded: No binding

Same assay, conditions: maximal binding, 125I-labeled glycoform, 1-LN cell monolayers, mean ± SD

Compound	Bound (Molecules × 10^5/cell)
Pg 2α: glycoform of human plasminogen type 2 purified from plasma; 1.3 mol sialic acid/mol Pg	13.0 ± 4.6
Pg 2β: glycoform of human plasminogen type 2 purified from plasma; 2.2 mol sialic acid/mol Pg	8.3 ± 1.3
Pg 2γ: glycoform of human plasminogen type 2 purified from plasma; 2.95 mol sialic acid/mol Pg	8.6 ± 1.7
Pg 2δ: glycoform of human plasminogen type 2 purified from plasma; 5.77 mol sialic acid/mol Pg	18.1 ± 2.4
Pg 2ε: glycoform of human plasminogen type 2 purified from plasma; 5.34 mol sialic acid/mol Pg	9.4 ± 0.8
